Experimental data reported in US7531329B2, “Carbonyl reductase, gene thereof and method of using the same” (Kaneka Corporation, priority 2002, dated 2009).

Tested on: reductase RDR
Assay: Substrate specificity of the reductase RDR (NADH oxidation, decrease in absorbance at 340 nm)
Type: biochemical, Devosia riboflavina IFO 13584
Details: substrate 1 mM, NADH 0.25 mM, 100 mM phosphate buffer pH 6.5, 0.33% (v/v) dimethyl sulfoxide, 30° C.
In the case of `O=C1CCc2ccccc2C1` [2-tetoralone], the “% activity (relative value, activity to N-benzyl-3-pyrrolidinone taken as 100%)” value is reported as 1721%. For `CC(=O)C=O` [methyl glyoxal], the “% activity (relative value, activity to N-benzyl-3-pyrrolidinone taken as 100%)” value was 345%. For `CCC(=O)Cc1ccccc1` [1-phenyl-2-butanone], the “% activity (relative value, activity to N-benzyl-3-pyrrolidinone taken as 100%)” value was 147%. With `CC(=O)CCC(=O)O` [levulinic acid] the “% activity (relative value, activity to N-benzyl-3-pyrrolidinone taken as 100%)” value was 11%. With `O=CCCc1ccccc1` [3-phenylpropionaldehyde] the “% activity (relative value, activity to N-benzyl-3-pyrrolidinone taken as 100%)” value was 685%. For `CC(=O)c1ccccc1` [acetophenone], the “% activity (relative value, activity to N-benzyl-3-pyrrolidinone taken as 100%)” value was 181%. For `CCOC(=O)C1CCC(=O)C1` (stereo not drawn) [ethyl 3-oxocyclopentane carboxylate], the “% activity (relative value, activity to N-benzyl-3-pyrrolidinone taken as 100%)” value was 87%. In the case of `COC(=O)CC(C)=O` [methyl acetoacetate], the “% activity (relative value, activity to N-benzyl-3-pyrrolidinone taken as 100%)” value is reported as 8341%. With `CCOC(=O)CC(=O)CN=[N+]=[N-]` [ethyl 4-azideacetoacetate] the “% activity (relative value, activity to N-benzyl-3-pyrrolidinone taken as 100%)” value was 804%. In the case of `CCOC(=O)CC(=O)CCl` [ethyl 4-chloroacetoacetate], the “% activity (relative value, activity to N-benzyl-3-pyrrolidinone taken as 100%)” value is reported as 683%. For `COc1ccc2c(c1)CC(=O)CC2` [7-methoxy-2-tetoralone], the “% activity (relative value, activity to N-benzyl-3-pyrrolidinone taken as 100%)” value was 7084%. In the case of `CC(=O)CCc1ccccc1` [benzylacetone], the “% activity (relative value, activity to N-benzyl-3-pyrrolidinone taken as 100%)” value is reported as 410%. With `CC(=O)CCO` [4-hydroxy-2-butanone] the “% activity (relative value, activity to N-benzyl-3-pyrrolidinone taken as 100%)” value was 33%. With `O=Cc1ccccc1[N+](=O)[O-]` [o-nitrobenzaldehyde] the “% activity (relative value, activity to N-benzyl-3-pyrrolidinone taken as 100%)” value was 33%. For `CC(=O)c1ccccn1` [2-acetylpyridine], the “% activity (relative value, activity to N-benzyl-3-pyrrolidinone taken as 100%)” value was 13%. With `CC(=O)c1cccc(O)c1` [m-hydroxyacetophenone] the “% activity (relative value, activity to N-benzyl-3-pyrrolidinone taken as 100%)” value was 61%. In the case of `O=C(CO)c1ccccc1` [2-hydroxyacetophenone], the “% activity (relative value, activity to N-benzyl-3-pyrrolidinone taken as 100%)” value is reported as 30%. With `C=CC(C(C)=O)C(=O)OCC` (stereo not drawn) [ethyl 2-eteneacetoacetate] the “% activity (relative value, activity to N-benzyl-3-pyrrolidinone taken as 100%)” value was 429%. In the case of `CCOC(=O)CC(=O)c1ccccc1` [ethyl benzoylacetate], the “% activity (relative value, activity to N-benzyl-3-pyrrolidinone taken as 100%)” value is reported as 98%. For `CC(=O)c1ccncc1` [4-acetylpyridine], the “% activity (relative value, activity to N-benzyl-3-pyrrolidinone taken as 100%)” value was 6448%. For `CC(=O)C1CC1` [cyclopropyl methyl ketone], the “% activity (relative value, activity to N-benzyl-3-pyrrolidinone taken as 100%)” value was 20%. For `CC(=O)CC(C)=O` [acetylacetone], the “% activity (relative value, activity to N-benzyl-3-pyrrolidinone taken as 100%)” value was 1354%. In the case of `CCOC(=O)CC(=O)CBr` [ethyl 4-bromoacetoacetate], the “% activity (relative value, activity to N-benzyl-3-pyrrolidinone taken as 100%)” value is reported as 4099%. With `CC(=O)c1ccc(F)cc1` [4-fluoroacetophenone] the “% activity (relative value, activity to N-benzyl-3-pyrrolidinone taken as 100%)” value was 366%. For `O=Cc1ccncc1` [pyridine-4-aldehyde], the “% activity (relative value, activity to N-benzyl-3-pyrrolidinone taken as 100%)” value was 441%. With `CC(=O)c1cccnc1` [3-acetylpyridine] the “% activity (relative value, activity to N-benzyl-3-pyrrolidinone taken as 100%)” value was 788%. With `CC(=O)CC(=O)OC(C)(C)C` [tert-butyl acetoacetate] the “% activity (relative value, activity to N-benzyl-3-pyrrolidinone taken as 100%)” value was 5634%. For `O=C(CCl)c1cccc(Cl)c1` [2-chloro-1-(3′-chlorophenyl)ethanone], the “% activity (relative value, activity to N-benzyl-3-pyrrolidinone taken as 100%)” value was 463%. For `O=Cc1ccc([N+](=O)[O-])cc1` [p-nitrobenzaldehyde], the “% activity (relative value, activity to N-benzyl-3-pyrrolidinone taken as 100%)” value was 1296%. For `CCCCCCCCOC(=O)CC(=O)CCl` [n-octyl 4-chloroacetoacetate], the “% activity (relative value, activity to N-benzyl-3-pyrrolidinone taken as 100%)” value was 224%. For `CCCC=O` [n-butylaldehyde], the “% activity (relative value, activity to N-benzyl-3-pyrrolidinone taken as 100%)” value was 728%. In the case of `CCC(C)=O` [2-butanone], the “% activity (relative value, activity to N-benzyl-3-pyrrolidinone taken as 100%)” value is reported as 280%. With `COC(=O)C(C)=O` [methyl pyruvate] the “% activity (relative value, activity to N-benzyl-3-pyrrolidinone taken as 100%)” value was 1889%. For `O=Cc1cccc([N+](=O)[O-])c1` [m-nitrobenzaldehyde], the “% activity (relative value, activity to N-benzyl-3-pyrrolidinone taken as 100%)” value was 683%. For `CCOC(=O)CC(=O)COCc1ccccc1` [ethyl 4-benzyloxyacetoacetate], the “% activity (relative value, activity to N-benzyl-3-pyrrolidinone taken as 100%)” value was 3186%. With `CCCCCC(C)=O` [2-heptanone] the “% activity (relative value, activity to N-benzyl-3-pyrrolidinone taken as 100%)” value was 2777%. For `O=CCCCC=O` [glutaraldehyde], the “% activity (relative value, activity to N-benzyl-3-pyrrolidinone taken as 100%)” value was 1339%. For `CC1(C)COC(=O)C1=O` [dihydro-4,4-dimethyl-2,3-furandione], the “% activity (relative value, activity to N-benzyl-3-pyrrolidinone taken as 100%)” value was 1314%. In the case of `O=C1CCN(Cc2ccccc2)C1` [N-benzyl-3-pyrrolidinone], the “% activity (relative value, activity to N-benzyl-3-pyrrolidinone taken as 100%)” value is reported as 100%. For `CC(=O)c1cccc([N+](=O)[O-])c1` [m-nitroacetophenone], the “% activity (relative value, activity to N-benzyl-3-pyrrolidinone taken as 100%)” value was 6927%. For `CCCCC(C)=O` [2-hexanone], the “% activity (relative value, activity to N-benzyl-3-pyrrolidinone taken as 100%)” value was 5043%. In the case of `CCCCCC=O` [n-hexylaldehyde], the “% activity (relative value, activity to N-benzyl-3-pyrrolidinone taken as 100%)” value is reported as 2225%. With `CCOC(=O)C(Cl)C(C)=O` (stereo not drawn) [ethyl 2-chloroacetoacetate] the “% activity (relative value, activity to N-benzyl-3-pyrrolidinone taken as 100%)” value was 8907%. For `CC(=O)CC(=O)OCc1ccccc1` [benzyl acetoacetate], the “% activity (relative value, activity to N-benzyl-3-pyrrolidinone taken as 100%)” value was 2015%. In the case of `CC(=O)CC(C)C` [4-methyl-2-pentanone], the “% activity (relative value, activity to N-benzyl-3-pyrrolidinone taken as 100%)” value is reported as 962%. For `CCOC(=O)C(C)=O` [ethyl pyruvate], the “% activity (relative value, activity to N-benzyl-3-pyrrolidinone taken as 100%)” value was 6232%. In the case of `CCOC(=O)C(C)C(C)=O` (stereo not drawn) [ethyl 2-methylacetoacetate], the “% activity (relative value, activity to N-benzyl-3-pyrrolidinone taken as 100%)” value is reported as 239%. In the case of `CCC(=O)C(=O)O` [2-keto-n-butyric acid], the “% activity (relative value, activity to N-benzyl-3-pyrrolidinone taken as 100%)” value is reported as 15%. In the case of `CC(C)=O` [acetone], the “% activity (relative value, activity to N-benzyl-3-pyrrolidinone taken as 100%)” value is reported as 194%. With `O=C1CCCC1` [cyclopentanone] the “% activity (relative value, activity to N-benzyl-3-pyrrolidinone taken as 100%)” value was 103%. In the case of `O=Cc1ccc(Cl)cc1` [p-chlorobenzaldehyde], the “% activity (relative value, activity to N-benzyl-3-pyrrolidinone taken as 100%)” value is reported as 117%. For `O=Cc1ccccn1` [2-pyridinecarbaldehyde], the “% activity (relative value, activity to N-benzyl-3-pyrrolidinone taken as 100%)” value was 82%. For `CC(=O)c1ccc(Cl)cc1` [p-chloroacetophenone], the “% activity (relative value, activity to N-benzyl-3-pyrrolidinone taken as 100%)” value was 2354%. With `CCOC(=O)C(Cl)C(=O)c1ccccc1` (stereo not drawn) [ethyl 2-chloro-3-oxo-3-phenyloropionate] the “% activity (relative value, activity to N-benzyl-3-pyrrolidinone taken as 100%)” value was 52%. For `CC(=O)C(C)=O` [diacetyl], the “% activity (relative value, activity to N-benzyl-3-pyrrolidinone taken as 100%)” value was 1614%. In the case of `COc1ccc2c(c1)CCC(=O)C2` [6-methoxy-2-tetoralone], the “% activity (relative value, activity to N-benzyl-3-pyrrolidinone taken as 100%)” value is reported as 156%. In the case of `CC(=O)c1ccc[nH]1` [2-acetylpyrrole], the “% activity (relative value, activity to N-benzyl-3-pyrrolidinone taken as 100%)” value is reported as 70%. In the case of `O=Cc1cccc(Cl)c1` [m-chlorobenzaldehyde], the “% activity (relative value, activity to N-benzyl-3-pyrrolidinone taken as 100%)” value is reported as 301%. With `CCC(=O)CC` [diethyl ketone] the “% activity (relative value, activity to N-benzyl-3-pyrrolidinone taken as 100%)” value was 32%. In the case of `CCC(=O)c1ccccc1` [propiophenone], the “% activity (relative value, activity to N-benzyl-3-pyrrolidinone taken as 100%)” value is reported as 27%. With `CC(=O)c1ccc(C)cc1` [p-methylacetophenone] the “% activity (relative value, activity to N-benzyl-3-pyrrolidinone taken as 100%)” value was 521%. In the case of `CCOC(=O)CC(=O)COC(C)=O` [ethyl 4-acetoxyacetoacetate], the “% activity (relative value, activity to N-benzyl-3-pyrrolidinone taken as 100%)” value is reported as 4234%. With `COc1cc2c(cc1OC)CC(=O)CC2` [6,7-dimethoxy-2-tetoralone] the “% activity (relative value, activity to N-benzyl-3-pyrrolidinone taken as 100%)” value was 2267%. For `O=Cc1ccccc1Cl` [o-chlorobenzaldehyde], the “% activity (relative value, activity to N-benzyl-3-pyrrolidinone taken as 100%)” value was 9%. For `CCOC(=O)CC(=O)CO` [ethyl 4-hydroxyacetoacetate], the “% activity (relative value, activity to N-benzyl-3-pyrrolidinone taken as 100%)” value was 1774%. For `CCOC(=O)CC(C)=O` [ethyl acetoacetate], the “% activity (relative value, activity to N-benzyl-3-pyrrolidinone taken as 100%)” value was 4236%. With `O=C(O)CC(=O)C(=O)O` [oxalacetic acid] the “% activity (relative value, activity to N-benzyl-3-pyrrolidinone taken as 100%)” value was 14%. With `CC(=O)CO` [hydroxyacetone] the “% activity (relative value, activity to N-benzyl-3-pyrrolidinone taken as 100%)” value was 100%. With `CCC=O` [propionaldehyde] the “% activity (relative value, activity to N-benzyl-3-pyrrolidinone taken as 100%)” value was 204%. With `CC(C=O)c1ccccc1` (stereo not drawn) [2-phenylpropionaldehyde] the “% activity (relative value, activity to N-benzyl-3-pyrrolidinone taken as 100%)” value was 706%. In the case of `O=Cc1ccccc1` [benzaldehyde], the “% activity (relative value, activity to N-benzyl-3-pyrrolidinone taken as 100%)” value is reported as 21%. For `CCCCCCCCC(=O)C(=O)OCC` [ethyl 2-oxodecanoate], the “% activity (relative value, activity to N-benzyl-3-pyrrolidinone taken as 100%)” value was 18%. With `COc1ccc(C(C)=O)cc1OC` [3,4-dimethoxyacetophenone] the “% activity (relative value, activity to N-benzyl-3-pyrrolidinone taken as 100%)” value was 2073%. In the case of `O=C(c1ccccc1)C(O)c1ccccc1` (stereo not drawn) [benzoin], the “% activity (relative value, activity to N-benzyl-3-pyrrolidinone taken as 100%)” value is reported as 13%.

Tested on: not listed separately
Assay: Determination of enzyme properties of purified RDR
Type: biochemical
Details: N-benzyl-3-pyrrolidinone 5 mM, coenzyme 0.25 mM, pH 6.5, 30° C.
Method: RDR obtained in Example 1 was investigated as to its enzymatic properties. Fundamentally, the enzyme activity was measured by adding the substrate N-benzyl-3-pyrrolidinone (5 mM), the coenzyme […] (0.25 mM) and the enzyme to 100 mM phosphate buffer (pH 6.5), allowing the reaction to proceed at 30° C. for 1 minute, and then measuring the decrease in absorbance at a wavelength of 340 nm.
In the presence of NADH as a coenzyme, the enzyme acted on N-benzyl-3-pyrrolidinone to form (R)-N-benzyl-3-pyrrolidinol with an optical purity of 99.9% ee or more. The enzyme activity measured with NADPH as a coenzyme by the above method was about 0.6% of the activity obtained by using NADH as a coenzyme.
Enzyme activity measurements were carried out by the same enzyme activity measurement method as mentioned above except that the pH was varied in the range of 4.0 to 8.0 using, as the buffer, 100 mM phosphate buffer and 100 mM acetate buffer.
Enzyme activity measurements were carried out by the same enzyme activity measurement method as mentioned above except that the temperature was varied from 20° C. to 60° C.
In the case of “RDR: purified enzyme from Devosia riboflavina IFO 13584 stereoselectively reducing N-benzyl-3-pyrrolidinone to (R)-N-benzyl-3-pyrrolidinol”, the “enzyme activity with NADPH as a coenzyme relative to the activity with NADH as a coenzyme” value is reported as “about 0.6%”.
